# Source: patent US20160175249A1, “Liposomes Containing Oligopeptide Fragments of Myelin Basic Protein, a Pharmaceutical Composition and a Method for Treatment of Multiple Sclerosis” (LIPOXEN TECHNOLOGIES LIMITED, priority 2009, published 2016)
# “Also recorded” adds a separate entry of the source.
# Tests used:
# [1] = test system: EAE-induced DA rats; assay: EAE-induced DA rat model, paralysis score and mortality (DA-EAE-28-02, Example 13); type: in vivo; conditions: 54 EAE induced DA rats; daily s.c. injection, 6 total; deaths/N
# Protocol: Each of the eight MBP peptide formulations were provided as a lyophilized powder and stored at 4° C. Rehydration of each formulation with water for injection was done daily according to Table 10. MBP peptide formulations were re-suspended in water for injection (Cure Medical) and copaxone (Teva LTD) was diluted with saline to a final concentration of 450 μg/mL. Each subject animal was administered the test formulation for 6 consecutive days by subcutaneous injection.
# 8-9 week old Dark Agouti (DA) female rats (Harlan Laboratories, Inc.), weighing between 110 and 145 grams were used as the test subjects. The health status of the animals used in this study was examined on arrival. Only animals in good health were acclimatized to laboratory conditions and were used in the study. Animals were provided food ad libitum and free access to drinking water. […]
# The rats were evaluated up daily starting 24 hours after immunization. […]
# 9-11 days post EAE induction, 54 animals were divided to 10 groups (5-6 rats in each), and blood was collected from 2 rats of each group before the initiation of the treatment. […] The animals were maintained and evaluated until day 28th post EAE-induction. […]
# Animals were observed individually and clinical signs were recorded once daily during all study periods. […] The body weight of each animals was determined daily during all study periods. […]
# [2] = test system: experimental autoimmune encephalomyelitis (EAE) in DA rats; assay: EAE in DA rats treated with MBP peptides in mannosylated SUV liposomes (Example 10); type: in vivo
# Protocol: All animal studies were carried out in animal facilities of Assaf Harofeh Medical Center (Zerifin, Israel) using standard approved practices for animal care. Induction of EAE was performed in 8-9 weeks Dark Agouti (DA) female rats. Briefly, rats were injected intradermally at the base of the tail with a total volume of 200 μl of inoculum, containing […] of MBP(63-81) (ANASPEC), in saline mixed (1:1) with CFA, (incomplete Freund's adjuvant (IFA), Sigma), and 1 mg MT (strain H37 RA; Difco Laboratories, Detroit, Mich.). Animals developing symptoms of MS were included to the study. Rats were treated with different liposomes formulations (Table 3), copaxone, or placebo (vehicle) under similar conditions for 6 days. All formulations were administrated by one subcutaneous injection per day. Animals were followed up till day 28th post EAE induction. Clinical signs score was performed daily during all study periods. Score gradation was the following: 0—Normal 1—tail weakness, 2—hind leg weakness or paralysis, 3—hind leg paralysis, dragging hind limbs, 4—complete paralysis, unable to move, 5—death.
# Liposomes were assembled from a mixture of egg phosphatidylcholine (PC) and one molar percent mannosylated DOG (ManDOG) (Durova OM, supra). Assembly of SUV liposomes was performed as illustrated in FIG. 3: (i) formation of irregular lipid layers during evaporation of organic solvent, followed by re-hydration leading to the multi-layer multilamellar vesicle (MLV) liposomes formation; (ii) high-pressure homogenization resulting in formation of empty SUV; (iii) freeze drying of SUV liposomes with peptides—at this stage peptides are located between collapsed SUV liposomes; and (iv) encapsulation of peptides during second re-hydration into the SUV liposomes with an average diameter of approximately 60-100 nm, containing 1.0% mannose residues on their surface. Four formulations were used for this study: each B cell epitope MBP peptide (MBP1, MBP2, and MBP3) individually and a 1:1:1 mixture (by mass) of all three peptides.
# Small unilamellar vesicles (SUV) were prepared from egg phosphatidylcholine (PC) and mannosylated DOG (Espuelas S. et al., Synthesis of an amphiphilic tetraantennary mannosyl conjugate and incorporation into liposome carriers, 2003 Bioorg Med Chem Lett., August 4; 13(15):2557-60, the contents of which are hereby incorporated by reference in their entirety for all purposes) (1:100 molar ratio) by high pressure homogenization (Durova OM, supra). Briefly, lipid mixture (100 mg/ml) in CHCl3 was dried under vacuum, further re-suspended in Milli-Q water to a final lipid concentration 50 mg/ml, followed by high-pressure homogenization (20,000 psi). Resulting SUV were mixed with peptides (lipid to peptide ratio 330:1) together with excess sugar (lactose to lipid ratio 3:1) with subsequent freeze-drying. Following rehydration under controlled conditions, the resulting SUV liposomes were washed by centrifugation to remove non-incorporated materials. The washed pellets were re-suspended in PBS to the required dose volume. Peptide incorporation was estimated on the basis of reversed-phase HPLC using linear gradient of acetonitrile applied on C18 column. The z-average diameter and zeta potential of liposomes were measured on a Brookhaven ZetaPlus zetasizer at 25° C. by diluting […] of the dispersion to the required volume with 1 mM PBS or appropriate media.
# To test the therapeutic potential of the four formulations, DA rates presenting with induced EAE were subcutaneously injected with one of the four mannosylated liposomal formulations, copaxone (positive control), free (un-encapsulated) MBPI peptide (negative control), and empty mannosylated liposomes (vehicle control; Table 3).
# Treatment of each rat was initiated at the first sign of EAE clinical manifestation. […]
substance,measurement,setting,value
glatiramer acetate [copaxone],Mortality Rate,[1],1/5
same,mean disease score course (FIG. 4),[2]; 6 daily s.c. injections from first clinical sign,EAE amelioration rate similar to treatment with the MBP1/2/3 SUV formulation; also recorded: did not fully recover from EAE after the initial attack
same,Mortality,"[2]; one s.c. injection per day, 6 injections, deaths/N",0/12
same,Median Cumulative Disease Score,"[2]; one s.c. injection per day, 6 injections, doses per Table 3",18.5
same,Median Maximal Disease Score (IQR),"[2]; one s.c. injection per day, 6 injections, doses per Table 3, score 0-5",2 (1.25)^1
